Data as given in article PMC12101129, “An optimized CYP3A4-activatable fluorogenic sensor for in situ functional imaging and multi-dimensional inhibitor assessment” (Chemical Science, 2025).

Experiments:
CYP3A = CYP3A inhibition assay in mouse liver microsomes; type: biochemical; settings: MLMs
CYP3A4 = test: Liver organ imaging in the presence of CYP3A4 inhibitor; design: species or system mice; settings: male, C57BL/6J, mouse, isolated liver tissue, probe NCN (50 µM); read-out: residual activity of hepatic CYP3A4
Method: dose group (CCl4-L, 0.15%), and CCl4 high dose group (CCl4-H, 0.3%). CCl4 was dissolved in vegetable oil and administered via intraperitoneal injection. After that, mice were fasted and allowed to drink water freely. After 18 h, blood samples were collected to determine the level of ALT and AST, while liver tissues were collected and washed with PBS. Then, the liver tissues were soaked 30 min in a solution containing NCN (50 μM, 5 mL) for fluorescent imaging. After organ imaging, the tissues were ground, and centrifuged, and the supernatant was diluted with 10-fold acetonitrile to precipitate the protein. After centrifugation again, the supernatant was determined to quantify the level of HNCN.
1.15. Bio-safety assessment of NCN in healthy mice
Sixteen C57BL/6J mice (8 males and 8 females, 6 weeks) were randomly assigned into two groups (4 males and 4 females). All mice were subjected to adaptive feeding for 7 d before the experiment. […] Mice organs were weighed and the organ index was calculated, and hematoxylin and eosin (H&E) stains were provided by Shanghai Ruibaohe Biotechnology Co., Ltd. […]
After that, the liver tissues were removed, and fluorescence imaging of the liver was performed using VISQUE Invivo Smart-LF. […]
quantify the levels of HNCN. […]
fluorescence intensity of the control (solvent only)) × 100%. […]

SMILES: CC(=O)N1CCN(c2ccc(OCC3COC(Cn4ccnc4)(c4ccc(Cl)cc4Cl)O3)cc2)CC1 (centres unmarked) [KCZ, ketoconazole]
- activity at 1 h, 1 µM (CYP3A4): ~20%
